Test results from publication PMC10295897, “A Novel MDM2-Binding Chalcone Induces Apoptosis of Oral Squamous Cell Carcinoma” (Biomedicines, 2023).
Read-outs that look alike come from different tables or passages of the source.

Assays:
[1] = system: SCC9 cells; assay: MTT cell viability assay, SCC9 oral cancer cells; format: cell-based, human; details: for dose-dependent cytotoxicity: SCC9, MTT; for IC50: MTT; for SCC9 S.I.: selective index = IC50 HGF / IC50 SCC9
Protocol: (§1) Human SCC-4, SCC-9, and SCC-25 cells derived from a human oral tongue SCC (squamous cell carcinoma) were obtained from the ATCC (CRL-1624, CRL-1629, and CRL-1628, respectively) and maintained in 1:1 DMEM/F12 (Dulbecco’s modified Eagle medium and Ham’s F12 medium; Gibco (Thermo Fisher, Waltham, MA, USA)) supplemented with 10% (v/v) FBS (fetal bovine serum; Invitrogen, Thermo Fisher, Waltham, MA, USA) and 400 ng/mL hydrocortisone (Sigma-Aldrich Co., St. Louis, MO, USA). Primary normal human gingival fibroblasts were obtained from the ATCC (PCS-201-018; HGF) and maintained in DMEM supplemented with 10% (v/v) FBS and were used in a maximum of six passages. The cells were grown in a humidified environment containing 5% CO2 at 37 °C. For all biological experiments, the compounds and control nutlin 3a were solubilized in 100% DMSO (all Sigma-Aldrich) to a final concentration of 10 mM. Carboplatin stock was prepared in water (Fauldcarbo®; LibbsFarmacêutica, São Paulo, SP, Brazil) and was used as a standard anticancer compound.
(§2) The viability of SCC cell lines, HT-29, HCT-116, HEP2G and primary human fibroblast cells was evaluated using the MTT assay as in [26]. Briefly, the cells were grown in duplicates in 96-well plates (5 × 10^3 cells/well) until confluence. Then, the medium was removed, fresh medium was added, and the cells were returned to the incubator in the presence of different compounds. DMSO at the same concentrations was used as a 100% cell viability control. After 48 h, the cells were incubated with 5 mg/mL MTT reagent (3-(4,5-dimethyl-2-thiazolyl)-2,5-diphenyl-2-H-tetrazolium bromide) (Sigma-Aldrich Co., St. Louis, MO, USA) for 3.5 h. After that, formazan crystals were dissolved in MTT solvent solution (DMSO/methanol 1:1 v/v), and the absorbance at 560 nm was evaluated using an EPOCH microplate spectrophotometer (BioTek Instruments, Winooski, VT, USA) with the background absorbance at 670 nm subtracted. Each of the six compounds was tested at six or seven different concentrations, ranging from 0.3 µM to 200 µM in cancer cell lines (SCC-4, SCC-9 and SCC-25) and 0.3 µM to 200 µM in primary normal human gingival fibroblasts. Controls (carboplatin, nutlin 3a) were tested at six or seven different concentrations ranging from 0.05 µM to 1000 µM in cancer cells and normal cells, depending on the compound.
(§3) The data are presented as means ± SD. IC values for the MTT assays were obtained by nonlinear regression using the […] 5.0 program (Intuitive Software for Science, San Diego, CA, USA) from at least three independent experiments. A dose–response (inhibitor) vs. response curve using the least squares method was used to determine the IC50, SD, and R^2 of the data. The selectivity index was calculated as SI = IC50 of the compound in normal oral fibroblast cells/IC50 of the same compound for each cancer cell line (SCC-4, SCC-9, SCC-25, HCT-116, HT29 and HEP2G), and the mean was calculated when indicated.
Initially, the six chalcones (1a–f) were submitted to the MTT assay to evaluate their cytotoxicity. The assay was performed using the oral cancer cell line SCC9, and the results were analyzed by a non-linear regression curve to determine the value of the half maximal inhibitory concentration (IC50). As controls, known chemotherapeutic agents were used, namely carboplatin, routinely used in the treatment of oral cancer, and doxorubicin, widely used for other types of cancers.

[2] = system: Primary Gingival Fibroblast (HGF); assay: MTT cell viability assay, primary normal gingival fibroblasts; format: cell-based, human; details: 48 h
Protocol: as §1, §2, §3

[3] = system: HT29 (adenocarcinoma); assay: MTT cell viability assay, HT29; format: cell-based
Protocol: as §2, §3

[4] = system: SCC25 cells; assay: MTT cell viability assay, SCC25 cells; format: cell-based, human; details: for IC50: 48 h, MTT; for SCC25 S.I.: selective index = IC50 HGF / IC50 SCC25
Protocol: as §1, §2, §3

[5] = system: SCC4 cells; assay: MTT cell viability assay, SCC4 cells; format: cell-based, human; details: for IC50: 48 h, MTT; for SCC4 S.I.: selective index = IC50 HGF / IC50 SCC4
Protocol: as §1, §2, §3

[6] = system: Oral Tumor Cells (SCC9, SCC25, SCC4); assay: MTT assay, average over oral tumor cells; format: cell-based, human; details: for Average S.I.: IC50 of normal primary fibroblasts / average IC50 of tumor cells; for IC50: mean of SCC9, SCC25, SCC4
Protocol: as §2, §3

[7] = Solubility observed during in vitro testing; format: physicochemical; details: in vitro cytotoxicity testing
[8] = Homo sapiens, SCC-9, 48 h, SCC9, 48 h, read-out: IC50
[9] = Homo sapiens, SCC-9, 48 h, 48 h, read-out: SCC9 IC50

Row | Compound | melting point | IC50 [1, 8] | SCC9 S.I. [1] | SCC25 S.I. [4] | SCC4 S.I. [5] | Average S.I. [6] | solubility (in words) [7] | also measured
1 | COc1ccc(C2=N[C@@H](c3ccc(Cl)cc3)[C@@H](c3ccc(Cl)cc3)N2C(=O)N2CCNC(=O)C2)c(OC(C)C)c1 [nutlin-3a, reference compound] |  |  | 2.72 |  |  |  |  | IC50 ([1]; 48 h, read-out: SCC9 IC50): 18 µM; IC50 [2]: 49.1 µM; IC50 ([3]; 48 h, MTT): 6.79 µM; HT29 S.I. ([3]; IC50 HGF / IC50 HT29): 7.22
2 | N.N.O=C([O-])C1(C(=O)[O-])CCC1.[Pt+2] [Carboplatin, carboplatin, reference compound] |  |  | 2.15 | 1.75 | 2.26 | 2.03 |  | IC50 ([1]; 48 h, read-out: SCC9 IC50): 156 µM; IC50 ([1]; SCC9, 48 h, read-out: IC50): 156 µM; IC50 [4]: 191 µM; IC50 [5]: 148 µM; IC50 [2]: 335 µM; IC50 [6]: 165 µM
3 | COc1cccc2c1C(=O)c1c(O)c3c(c(O)c1C2=O)C[C@@](O)(C(=O)CO)C[C@@H]3O[C@H]1C[C@H](N)[C@H](O)[C@H](C)O1 [Doxorubicin, doxorubicin, reference compound] |  | 2.99 µM | 1.16 | 3.86 | 6.09 | 2.34 |  | IC50 [1, 9]: 2.99 µM; IC50 ([4]; Homo sapiens, SCC-25): 0.9 µM; IC50 ([5]; Homo sapiens, SCC-4): 0.57 µM; IC50 ([2]; Homo sapiens, Fibroblast): 3.47 µM; IC50 ([6]; Homo sapiens): 1.49 µM

Continued, in another order:

Row | melting point | IC50 [1, 8] | Compound | SCC9 S.I. [1] | SCC25 S.I. [4] | SCC4 S.I. [5] | Average S.I. [6] | solubility (in words) [7] | also measured
4 | 220 to 222 °C |  | CCOC(=O)c1ccc(-n2cc(/C=C/C(=O)c3ccccc3N)nn2)cc1 [1e, Ethyl(E)-4-(4-(3-(2-aminophenyl)-3-oxoprop-1-en-1-yl)-1H-1,2,3-triazol-1-yl)benzoate] |  |  |  |  |  | dose-dependent cytotoxicity [1]: all presented dose-dependent cytotoxicity, except
5 | 128 to 130 °C | 9.95 µM | Nc1ccccc1C(=O)/C=C/c1cnn(-c2ccccc2)n1 [1a, (E)-1-(2-Aminophenyl)-3-(2-phenyl-2H-1,2,3-triazol-4-yl)prop-2-en-1-one] |  |  |  |  | formed highly insoluble well-structured crystals at low concentrations | 
6 | 174 to 176 °C | 9.32 µM | COc1ccc(-n2cc(/C=C/C(=O)c3ccccc3N)nn2)cc1 [1c, (E)-1-(2-Aminophenyl)-3-(1-(4-methoxyphenyl)-1H-1,2,3-triazol-4-yl)prop-2-en-1-one] |  |  |  |  | formed highly insoluble well-structured crystals at low concentrations | 
7 | 253 to 255 °C |  | Nc1ccccc1C(=O)/C=C/c1cn(-c2ccc([N+](=O)[O-])cc2)nn1 [1d, (E)-1-(2-Aminophenyl)-3-(1-(4-nitrophenyl)-1H-1,2,3-triazol-4-yl)prop-2-en-1-one] |  |  |  |  |  | dose-dependent cytotoxicity [1]: all presented dose-dependent cytotoxicity, except
8 | 183 to 185 °C | 12.7 µM | Nc1ccccc1C(=O)/C=C/c1cn(-c2ccccc2)nn1 [1b, (E)-1-(2-Aminophenyl)-3-(1-phenyl-1H-1,2,3-triazol-4-yl)prop-2-en-1-one] | 2.80 | 2.85 | 2.83 | 2.82 | highly soluble | IC50 [1, 9]: 12.7 µM; IC50 ([4]; Homo sapiens, SCC-25): 12.5 µM; IC50 ([5]; Homo sapiens, SCC-4): 12.6 µM; IC50 ([2]; Homo sapiens, Fibroblast): 35.7 µM; IC50 ([6]; Homo sapiens): 12.6 µM
